Consider seven molecules from patent publication EP3501540A1, “MITOCHONDRIAL TRIFUNCTIONAL PROTEIN (MTP) INHIBITORS FOR USE IN THE TREATMENT OF HIGH MITOCHONDRIAL RESPIRATION (OX+) CANCERS” (UNIVERSITE DE BORDEAUX, priority 2017, dated 2019).

Experiment [1] relates to HADHA. The experiment in a line: HADHA expression in cells. The experiment is classed as cell-based, human. The following applies: A549 cells; LiCl 20 mM. The method, then: Cells pellet were lysed in a buffer containing RIPA IX (Sigma-Aldrich) and protease inhibitors cocktail (chymostatin, leupeptin, antipain, pepstatin A - Sigma-Aldrich). Protein lysates were placed on ice for 15 min, vortexed and cleared by centrifugation at 12,000 × g for 15 min at 4 °C. The supernatants were retrieved and frozen at -80 °C until use. Protein concentration was performed using the Pierce™ BCA Protein Assay Kit.
Samples (20ug) were dissolved in Laemmli buffer (Bio-Rad) containing 2% mercaptoethanol by incubation for 15 min at 65°C and separated on a 4-15% SDS-polyacrylamide gradient TGX STAIN FREE mini-gel (Biorad). The gels are activated by UV with chemidoc (Biorad). Proteins were transferred electrophoretically to 0.45 µm of nitrocellulose membranes for 7 min at 2.5 Amp in Transfert buffer with Trans-Blot Turbo (biorad). Membranes were blocked 1h in odyssey buffer (eurobio) and incubated overnight in a mixture of antibodies diluted in odyssey buffer. After three washes with PBS-0.05% Tween 20, the membranes were incubated for 1 h with second antibody (LYCOR) diluted in odyssey buffer. This secondary antibody was detected by fluorescence with odyssey. Proteins were detected using specific antibodies (abcam) and total protein was used as the loading control. Primary antibodies (abcam®) against HADHA, VLCAD, mt-ETFA, mt-ETFB, NDUFS2 and NDUFAB1.

For experiment [2], the system named is H460 cells. The experiment in a line: Sensitivity to chemotherapeutic drugs. The experiment is classed as cell-based, human. The following applies: H460 cells compared with A549 cells; data not shown.
Experiment [3] concerns A549 (OX+) cells. The experiment is described as follows: Sulphorodamine B viability assay. The experiment is classed as cell-based, human. Particulars: A549 (OX+) cells in vitro. As for the experimental part: A549_LUC and H460_LUC, human lung cancer cells, were stably transfected with luciferase (pRRLsin-MND-Luc-WPRE). […] Also, they were tested as luciferase positive using direct application of 2 mL of a 150 mg/ml solution of luciferine (Firefly Luciferin, Caliper Lifescience Corp, USA), followed by immediate bioluminescent imaging using the photonIMAGER™ optima system.
Briefly, cells were seeded in 96-well plates and medium was changed after 24 h, then Test Reagent was added on top of the cell wells and incubated for up to 72h. The viability assay was performed using Sulforhodamine B colorimetric assay for viability assay following the protocol described by Vanicha Vichai & Kanyawim Kirtikara.

The subject of experiment [4] is respiratory chain complex I. The experiment is described as follows: Complex I enzymatic activity assay (spectrophotometric). The experiment is classed as biochemical, human. Particulars: A549 cells: 500 µM Trimetazidine 48H; cell homogenate: 100 µM palmitoyl-Coa, 10 min incubation. The method, then:
Enzymatic activities were measured spectrophotometrically, in homogenate of cells using the following reaction media: Complex I - 50mM potassium phosphate buffer, 100µM Decylubiquinone. The reaction was started by the addition of 100µM NADH and carried out at 37°C for 15 min in 340nm. After the stabilization of the signal was added 12,5µM Rotenone. Complex II - 25mM potassium phosphate buffer, 1mM KCN, 100µM ATP, 50µM DCPIP, 20mM succinate. The reaction was started by the addition of 100µM decylubiquinone and carried out at 37°C for 15 min in 660nm. Complex III - 100mM potassium phosphate buffer, 50µM cytochrome c, 250µM EDTA. The reaction was started by the addition of 100µM decylubiquinol and carried out at 37°C for 15 min in 550nm. After the stabilization of the signal was added 12,5µg/ml antimycin A. Complex IV - 100uM reduced cytochrome C in 50mM potassium phosphate buffer. The reaction was started by the addition of homogenate of cells and carried out at 37°C for 15 min in 550nm.

`COC(=O)c1cccc(NS(=O)(=O)c2ccc(C)cc2)c1` [MSAB, methyl 3-{[(4-methylphenyl)sulfonyl]amino}benzoate]: the “expression of HADHA” value in experiment [1] is given as “opposite effect”.
Consider `COc1cc([C@@H]2c3cc4c(cc3[C@@H](O[C@@H]3O[C@@H]5CO[C@@H](C)O[C@H]5[C@H](O)[C@H]3O)[C@H]3COC(=O)[C@H]23)OCO4)cc(OC)c1O` [etoposide], for which the “sensitivity to the chemotherapeutic drugs” value (“sensitivity” for short) in experiment [2] is recorded as “higher sensitivity”.
`COc1ccccc1OCC(O)CN1CCN(CC(=O)Nc2c(C)cccc2C)CC1` (racemic) [Ranolazine, (±)-N-(2,6-dimethylphenyl)-4-[2-hydroxy-3-(2-methoxyphenoxy)-propyl]-1-piperazineacetamide]: the cell viability entry in experiment [3] is “dose-dependent loss”.
In the case of `CCCCCCCCCCCCCCCC(=O)SCCNC(=O)CCNC(=O)[C@H](O)C(C)(C)COP(=O)(O)OP(=O)(O)OC[C@H]1O[C@@H](n2cnc3c(N)ncnc32)[C@H](O)[C@@H]1OP(=O)(O)O` [palmitoyl-CoA], the “respiratory chain complex I activity” value in experiment [4] was “inhibition”.
In the case of lithium-chloride, the “expression of HADHA” value in experiment [1] is listed as “stimulated”.
For the molecule `O=c1[nH]cc(F)c(=O)[nH]1` [5-fluorouracile], in experiment [2], the “sensitivity” value is on record as “higher sensitivity”.
As for `COc1cccc2c1C(=O)c1c(O)c3c(c(O)c1C2=O)C[C@@](O)(C(=O)CO)C[C@@H]3O[C@H]1C[C@H](N)[C@H](O)[C@H](C)O1` [doxorubicin], the “sensitivity” value in experiment [2] is listed as “higher sensitivity”.
